Reference: publication PMC9797307, “Measurement of Pharmacokinetics and Tissue Distribution of Four Compounds from Nauclea officinalis in Rat Plasma and Tissues through HPLC-MS/MS” (Journal of Analytical Methods in Chemistry, 2022)

Test: Stability of QC samples in rat plasma and tissue homogenates under different storage conditions
Assay type: in vitro ADME
Details: in % (unit assumed)

C/C=C1/COC(=O)[C@H]2C(=O)N3CCc4c([nH]c5ccccc45)[C@@H]3C[C@@H]12 [Naucleactonin C]
Accuracy, Ambient temperature for 4 h (Brain, 5 ng/mL): 106.35 ± 11.82
Accuracy, Autosampler at 4°C for 8 h (Brain, 5 ng/mL): 109.83 ± 6.05
Accuracy, Three freeze-thraw cycles (Brain, 5 ng/mL): 98.92 ± 10.65
Accuracy, −80°C for 30 days (Brain, 5 ng/mL): 104.10 ± 10.88
Accuracy, Ambient temperature for 4 h (Brain, 8 ng/mL): 88.87 ± 10.43
Accuracy, Autosampler at 4°C for 8 h (Brain, 8 ng/mL): 90.65 ± 6.37
Accuracy, Three freeze-thraw cycles (Brain, 8 ng/mL): 89.95 ± 9.23
Accuracy, −80°C for 30 days (Brain, 8 ng/mL): 88.82 ± 10.57
Accuracy, Ambient temperature for 4 h (Brain, 140 ng/mL): 88.33 ± 6.74
Accuracy, Autosampler at 4°C for 8 h (Brain, 140 ng/mL): 87.92 ± 8.15
Accuracy, Three freeze-thraw cycles (Brain, 140 ng/mL): 87.20 ± 4.98
Accuracy, −80°C for 30 days (Brain, 140 ng/mL): 87.93 ± 5.81
Accuracy, Ambient temperature for 4 h (Brain, 2400 ng/mL): 99.43 ± 6.38
Accuracy, Autosampler at 4°C for 8 h (Brain, 2400 ng/mL): 112.67 ± 6.62
Accuracy, Three freeze-thraw cycles (Brain, 2400 ng/mL): 109.67 ± 6.44
Accuracy, −80°C for 30 days (Brain, 2400 ng/mL): 109.00 ± 5.22
Accuracy, Ambient temperature for 4 h (Heart, 5 ng/mL): 111.97 ± 11.63
Accuracy, Autosampler at 4°C for 8 h (Heart, 5 ng/mL): 100.78 ± 9.63
Accuracy, Three freeze-thraw cycles (Heart, 5 ng/mL): 107.98 ± 9.45
Accuracy, −80°C for 30 days (Heart, 5 ng/mL): 107.42 ± 10.24
Accuracy, Ambient temperature for 4 h (Heart, 8 ng/mL): 110.50 ± 4.42
Accuracy, Autosampler at 4°C for 8 h (Heart, 8 ng/mL): 107.25 ± 9.25
Accuracy, Three freeze-thraw cycles (Heart, 8 ng/mL): 109.08 ± 8.25
Accuracy, −80°C for 30 days (Heart, 8 ng/mL): 110.87 ± 9.04
Accuracy, Ambient temperature for 4 h (Heart, 140 ng/mL): 102.78 ± 6.89
Accuracy, Autosampler at 4°C for 8 h (Heart, 140 ng/mL): 104.88 ± 3.80
Accuracy, Three freeze-thraw cycles (Heart, 140 ng/mL): 100.40 ± 9.13
Accuracy, −80°C for 30 days (Heart, 140 ng/mL): 98.28 ± 5.70
Accuracy, Ambient temperature for 4 h (Heart, 2400 ng/mL): 112.33 ± 10.41
Accuracy, Autosampler at 4°C for 8 h (Heart, 2400 ng/mL): 111.50 ± 5.68
Accuracy, Three freeze-thraw cycles (Heart, 2400 ng/mL): 112.33 ± 5.72
Accuracy, −80°C for 30 days (Heart, 2400 ng/mL): 110.50 ± 4.81
Accuracy, Ambient temperature for 4 h (Kidney, 5 ng/mL): 109.33 ± 7.55
Accuracy, Autosampler at 4°C for 8 h (Kidney, 5 ng/mL): 106.08 ± 8.96
Accuracy, Three freeze-thraw cycles (Kidney, 5 ng/mL): 98.92 ± 9.91
Accuracy, −80°C for 30 days (Kidney, 5 ng/mL): 97.18 ± 10.46
Accuracy, Ambient temperature for 4 h (Kidney, 8 ng/mL): 99.10 ± 4.24
Accuracy, Autosampler at 4°C for 8 h (Kidney, 8 ng/mL): 97.38 ± 7.31
Accuracy, Three freeze-thraw cycles (Kidney, 8 ng/mL): 91.10 ± 9.20
Accuracy, −80°C for 30 days (Kidney, 8 ng/mL): 94.77 ± 7.62
Accuracy, Ambient temperature for 4 h (Kidney, 140 ng/mL): 96.08 ± 7.36
Accuracy, Autosampler at 4°C for 8 h (Kidney, 140 ng/mL): 95.43 ± 7.99
Accuracy, Three freeze-thraw cycles (Kidney, 140 ng/mL): 101.10 ± 4.98
Accuracy, −80°C for 30 days (Kidney, 140 ng/mL): 100.25 ± 8.25
Accuracy, Ambient temperature for 4 h (Kidney, 2400 ng/mL): 108.00 ± 5.62
Accuracy, Autosampler at 4°C for 8 h (Kidney, 2400 ng/mL): 103.87 ± 4.68
Accuracy, Three freeze-thraw cycles (Kidney, 2400 ng/mL): 104.57 ± 6.09
Accuracy, −80°C for 30 days (Kidney, 2400 ng/mL): 102.30 ± 5.90
Accuracy, Ambient temperature for 4 h (Liver, 5 ng/mL): 101.78 ± 11.83
Accuracy, Autosampler at 4°C for 8 h (Liver, 5 ng/mL): 107.70 ± 5.36
Accuracy, Three freeze-thraw cycles (Liver, 5 ng/mL): 98.32 ± 6.66
Accuracy, −80°C for 30 days (Liver, 5 ng/mL): 98.38 ± 12.07
Accuracy, Ambient temperature for 4 h (Liver, 8 ng/mL): 87.60 ± 5.90
Accuracy, Autosampler at 4°C for 8 h (Liver, 8 ng/mL): 86.47 ± 4.52
Accuracy, Three freeze-thraw cycles (Liver, 8 ng/mL): 90.60 ± 4.91
Accuracy, −80°C for 30 days (Liver, 8 ng/mL): 86.00 ± 8.60
Accuracy, Ambient temperature for 4 h (Liver, 140 ng/mL): 88.57 ± 2.44
Accuracy, Autosampler at 4°C for 8 h (Liver, 140 ng/mL): 95.00 ± 4.15
Accuracy, Three freeze-thraw cycles (Liver, 140 ng/mL): 96.28 ± 4.36
Accuracy, −80°C for 30 days (Liver, 140 ng/mL): 97.32 ± 7.17
Accuracy, Ambient temperature for 4 h (Liver, 2400 ng/mL): 98.93 ± 3.81
Accuracy, Autosampler at 4°C for 8 h (Liver, 2400 ng/mL): 91.37 ± 2.51
Accuracy, Three freeze-thraw cycles (Liver, 2400 ng/mL): 89.35 ± 3.70
Accuracy, −80°C for 30 days (Liver, 2400 ng/mL): 89.97 ± 7.32
Accuracy, Ambient temperature for 4 h (Lung, 5 ng/mL): 109.50 ± 11.47
Accuracy, Autosampler at 4°C for 8 h (Lung, 5 ng/mL): 100.40 ± 10.26
Accuracy, Three freeze-thraw cycles (Lung, 5 ng/mL): 101.05 ± 5.33
Accuracy, −80°C for 30 days (Lung, 5 ng/mL): 95.98 ± 10.47
Accuracy, Ambient temperature for 4 h (Lung, 8 ng/mL): 94.73 ± 8.92
Accuracy, Autosampler at 4°C for 8 h (Lung, 8 ng/mL): 91.40 ± 9.71
Accuracy, Three freeze-thraw cycles (Lung, 8 ng/mL): 101.90 ± 10.45
Accuracy, −80°C for 30 days (Lung, 8 ng/mL): 99.03 ± 10.49
Accuracy, Ambient temperature for 4 h (Lung, 140 ng/mL): 102.38 ± 4.12
Accuracy, Autosampler at 4°C for 8 h (Lung, 140 ng/mL): 94.45 ± 5.92
Accuracy, Three freeze-thraw cycles (Lung, 140 ng/mL): 93.75 ± 8.53
Accuracy, −80°C for 30 days (Lung, 140 ng/mL): 92.58 ± 3.60
Accuracy, Ambient temperature for 4 h (Lung, 2400 ng/mL): 111.37 ± 9.27
Accuracy, Autosampler at 4°C for 8 h (Lung, 2400 ng/mL): 111.85 ± 9.53
Accuracy, −80°C for 30 days (Lung, 2400 ng/mL): 111.67 ± 3.39
Accuracy, Ambient temperature for 4 h (Plasma, 5 ng/mL): 101.95 ± 10.33
Accuracy, Autosampler at 4°C for 8 h (Plasma, 5 ng/mL): 106.67 ± 10.88
Accuracy, Three freeze-thraw cycles (Plasma, 5 ng/mL): 91.87 ± 8.63
Accuracy, −80°C for 30 days (Plasma, 5 ng/mL): 109.57 ± 12.66
Accuracy, Ambient temperature for 4 h (Plasma, 8 ng/mL): 108.88 ± 1.87
Accuracy, Autosampler at 4°C for 8 h (Plasma, 8 ng/mL): 105.01 ± 6.32
Accuracy, Three freeze-thraw cycles (Plasma, 8 ng/mL): 105.88 ± 1.87
Accuracy, −80°C for 30 days (Plasma, 8 ng/mL): 113.33 ± 5.32
Accuracy, Ambient temperature for 4 h (Plasma, 140 ng/mL): 87.67 ± 9.20
Accuracy, Autosampler at 4°C for 8 h (Plasma, 140 ng/mL): 87.88 ± 4.14
Accuracy, Three freeze-thraw cycles (Plasma, 140 ng/mL): 111.88 ± 1.87
Accuracy, −80°C for 30 days (Plasma, 140 ng/mL): 111.57 ± 9.60
Accuracy, Ambient temperature for 4 h (Plasma, 2400 ng/mL): 88.93 ± 6.01
Accuracy, Autosampler at 4°C for 8 h (Plasma, 2400 ng/mL): 89.25 ± 7.58
Accuracy, Three freeze-thraw cycles (Plasma, 2400 ng/mL): 89.17 ± 7.49
Accuracy, −80°C for 30 days (Plasma, 2400 ng/mL): 113.83 ± 7.14
Accuracy, Ambient temperature for 4 h (Small intestine, 5 ng/mL): 111.90 ± 12.07
Accuracy, Autosampler at 4°C for 8 h (Small intestine, 5 ng/mL): 111.67 ± 8.14
Accuracy, Three freeze-thraw cycles (Small intestine, 5 ng/mL): 111.17 ± 8.33
Accuracy, −80°C for 30 days (Small intestine, 5 ng/mL): 112.67 ± 8.78
Accuracy, Ambient temperature for 4 h (Small intestine, 8 ng/mL): 103.33 ± 3.39
Accuracy, Autosampler at 4°C for 8 h (Small intestine, 8 ng/mL): 100.03 ± 11.46
Accuracy, Three freeze-thraw cycles (Small intestine, 8 ng/mL): 100.60 ± 10.24
Accuracy, −80°C for 30 days (Small intestine, 8 ng/mL): 104.25 ± 9.49
Accuracy, Ambient temperature for 4 h (Small intestine, 140 ng/mL): 88.60 ± 9.48
Accuracy, Autosampler at 4°C for 8 h (Small intestine, 140 ng/mL): 89.80 ± 8.30
Accuracy, Three freeze-thraw cycles (Small intestine, 140 ng/mL): 87.88 ± 5.57
Accuracy, −80°C for 30 days (Small intestine, 140 ng/mL): 90.17 ± 7.26
Accuracy, Ambient temperature for 4 h (Small intestine, 2400 ng/mL): 107.48 ± 8.23
Accuracy, Autosampler at 4°C for 8 h (Small intestine, 2400 ng/mL): 103.75 ± 6.68
Accuracy, Three freeze-thraw cycles (Small intestine, 2400 ng/mL): 108.43 ± 8.65
Accuracy, −80°C for 30 days (Small intestine, 2400 ng/mL): 102.32 ± 8.65
Accuracy, Ambient temperature for 4 h (Spleen, 5 ng/mL): 110.33 ± 8.71
Accuracy, Autosampler at 4°C for 8 h (Spleen, 5 ng/mL): 112.92 ± 8.72
Accuracy, Three freeze-thraw cycles (Spleen, 5 ng/mL): 110.67 ± 8.57
Accuracy, −80°C for 30 days (Spleen, 5 ng/mL): 109.68 ± 12.57
Accuracy, Ambient temperature for 4 h (Spleen, 8 ng/mL): 99.28 ± 13.31
Accuracy, Autosampler at 4°C for 8 h (Spleen, 8 ng/mL): 93.42 ± 8.00
Accuracy, Three freeze-thraw cycles (Spleen, 8 ng/mL): 96.13 ± 11.98
Accuracy, −80°C for 30 days (Spleen, 8 ng/mL): 101.90 ± 10.25
Accuracy, Ambient temperature for 4 h (Spleen, 140 ng/mL): 93.13 ± 6.10
Accuracy, Autosampler at 4°C for 8 h (Spleen, 140 ng/mL): 95.27 ± 7.08
Accuracy, Three freeze-thraw cycles (Spleen, 140 ng/mL): 89.18 ± 8.23
Accuracy, −80°C for 30 days (Spleen, 140 ng/mL): 92.35 ± 2.70
Accuracy, Ambient temperature for 4 h (Spleen, 2400 ng/mL): 103.33 ± 8.37
Accuracy, Autosampler at 4°C for 8 h (Spleen, 2400 ng/mL): 105.67 ± 8.50
Accuracy, Three freeze-thraw cycles (Spleen, 2400 ng/mL): 107.73 ± 8.10
Accuracy, −80°C for 30 days (Spleen, 2400 ng/mL): 109.83 ± 4.96
Accuracy, Ambient temperature for 4 h (Stomach, 5 ng/mL): 111.00 ± 7.90
Accuracy, Autosampler at 4°C for 8 h (Stomach, 5 ng/mL): 112.17 ± 7.25
Accuracy, Three freeze-thraw cycles (Stomach, 5 ng/mL): 113.12 ± 9.97
Accuracy, −80°C for 30 days (Stomach, 5 ng/mL): 113.83 ± 2.99
Accuracy, Ambient temperature for 4 h (Stomach, 8 ng/mL): 107.32 ± 12.96
Accuracy, Autosampler at 4°C for 8 h (Stomach, 8 ng/mL): 98.37 ± 10.75
Accuracy, Three freeze-thraw cycles (Stomach, 8 ng/mL): 105.90 ± 9.13
Accuracy, −80°C for 30 days (Stomach, 8 ng/mL): 103.55 ± 9.49
Accuracy, Ambient temperature for 4 h (Stomach, 140 ng/mL): 88.15 ± 7.91
Accuracy, Autosampler at 4°C for 8 h (Stomach, 140 ng/mL): 86.38 ± 8.38
Accuracy, Three freeze-thraw cycles (Stomach, 140 ng/mL): 87.12 ± 5.24
Accuracy, −80°C for 30 days (Stomach, 140 ng/mL): 88.28 ± 6.31
Accuracy, Ambient temperature for 4 h (Stomach, 2400 ng/mL): 100.53 ± 7.29
Accuracy, Autosampler at 4°C for 8 h (Stomach, 2400 ng/mL): 99.52 ± 5.85
Accuracy, Three freeze-thraw cycles (Stomach, 2400 ng/mL): 104.90 ± 5.53
Accuracy, −80°C for 30 days (Stomach, 2400 ng/mL): 102.32 ± 8.22
